Like-named read-outs stand apart in the source and are kept apart here.
Tests used:
[1] = Tissue, plasma, rectal sample and GI content pharmacokinetics of tacrolimus, oral vs intra-cecal ingestible device (Example 10); parameters: species or system Yorkshire-Cross farm swine; settings: in vivo
Procedure: The primary objective of this study was to compare the tissue, plasma, rectal sample, and GI content pharmacokinetics of tacrolimus through oral versus intra-cecal ingestible device delivery in normal Yorkshire-Cross farm swine.
(§1) No further randomization procedure was employed.
Animals in Group 1 received an ingestible device containing 0.8 mL of vehicle solution (80% alcohol, 20% HCO-60). Animals in Group 2 received orally […] liquid formulation of tacrolimus at 4 mg/0.8 mL per animal (Prograf: 5 mg/mL). Animals in Group 3 received intra-cecally an ingestible device containing tacrolimus at 1 mg in 0.8 mL per ingestible device. Animals in Group 4 received intra-cecally an ingestible device containing tacrolimus at 2 mg in 0.8 mL per ingestible device. Animals in Group 5 received intra-cecally an ingestible device containing tacrolimus at 4 mg in 0.8 mL per ingestible device. To control for potential confounding effects of the surgery, all groups fast on Day −11 at least 24 hr before being subjected to anesthesia followed by surgical placements of a cecal port by a veterinary surgeon at Day −10. All animals were fasted for at least 12 hr prior to dosing on Day 1. Animals were dosed via either intra-cecal dosing (IC) or oral dosing (PO) at Day 1 (between 6-8 p.m.). All animals resumed feeding at approximately 4 hours after dose (11-12 p.m. after dosing).
Animals in Group 1 (Vehicle Control) were administered a single intra-cecal ingestible device containing 0.8 mL Vehicle solution (80% alcohol, 20% castor oil (HCO-60) on Day 1. On Day −10 the animals were anesthetized, and a veterinary surgeon surgically placed an intra-cecal port in each animal. On Day 1, each animal was placed into a sling then a single intra-cecal ingestible device containing 0.8 mL vehicle solution (80% alcohol, 20% castor oil (HCO-60)) is introduced by the veterinary surgeon into the cecum via the cecal port in each animal. Following ingestible device placement, the animals were removed from the slings and placed back into their pens with water. All animals resumed feeding at approximately 4 hours after dose. […] A total of 60 samples were collected.
Approximately 200˜400 mg of rectal content were collected, if available, with a fecal swab (Copan Diagnostics Nylon Flocked Dry Swabs, 502CS01). The fecal swab was pre-weighed and weighed after collection in the collection tube (Sterile Tube and Cap No Media, PFPM913S), and the sample weight was recorded. The fecal swab was broken via the breakpoint, and was stored in the collection tube, and immediately frozen at −70° C. […] Immediately following euthanasia, tissue was collected.
For tissue necropsy, small intestine fluid and cecal fluid were collected separately from all the animals into two separate square plastic bottles, and stored at −20° C. The length and diameter of the cecum and the colon was measured from one animal in each group and recorded for reference. Tissues were collected for pharmacokinetic analyses and include mesenteric lymph nodes, a Peyer's Patch, and five gastrointestinal sections, including cecum, proximal colon, transverse colon, distal colon, and rectum. All samples were weighed, and the tissue sample weights were recorded. In each of the five gastrointestinal sections, tissue samples were collected in three different areas where the mucosal surface was visible and not covered by luminal content by using an 8.0-mm punch biopsy tool. Around 3 grams of the total punched sample were collected into a pre-weighed 15-mL conical tube, and the tissue weight was recorded. Three mesenteric lymph nodes were collected from different areas and weighed. At least one Peyer's Patch was collected and weighed.
Luminal contents were collected for pharmacokinetic analyses from the surface of the tissue from each of five gastrointestinal sections: cecum, proximal colon, transverse colon, distal colon, and rectum (total of 75). […]

[2] = Blood pharmacokinetics of oral vs intra-cecal tacrolimus (Example 13); parameters: species or system Yorkshire-Cross farm swine; settings: in vivo; for concentration at 12 hr: Trough (12 hr)
From the text: as §1

[3] = Tacrolimus concentration in gastrointestinal tissue, luminal content and rectal contents, and tissue/plasma ratios (Example 13); assay type: in vivo, Yorkshire-Cross farm swine; settings: female, Yorkshire-Cross, pig; for concentration at 12 hr: other: intra-cecal device; for concentration at 12 hr / concentration at 12 h: 12 hr post dose
Procedure: The primary objective of this study was to study the pharmacokinetics of oral versus intra-cecal administration of tacrolimus in normal Yorkshire-Cross farm swine.
This study compares the effects of administration of: a single intra-cecal administration of a device containing 0.8 mL sterile vehicle solution (80% alcohol, 20% castor oil (HCO-60)); a single oral dose of tacrolimus at 0.09 mg/kg (in sterile vehicle solution); and a single intra-cecal administration of a device containing either 0.02 mg/kg (in sterile vehicle solution), 0.04 mg/kg (in sterile vehicle solution), or 0.09 mg/kg (in sterile vehicle solution).
This study employed five groups of three female swine weighing approximately 45 to 50 kg at study start. Swine were randomly placed into animal rooms/pens as they are transferred from the delivery vehicle without regard to group. Group numbers were assigned to the rooms in order of room number. No further randomization procedure was employed.
Animals in Group 1 received intra-cecally a device containing a vehicle solution (80% alcohol, 20% HCO-60). Animals in Group 2 received orally a liquid formulation of tacrolimus at 0.09 mg/kg per animal. Animals in Group 3 received intra-cecally a device containing tacrolimus at 0.02 mg/kg per device. Animals in Group 4 received intra-cecally a device containing tacrolimus 0.04 mg/kg per device. Animals in Group 5 received intra-cecally a device containing tacrolimus 0.09 mg/kg per device.

[4] = female, Yorkshire-Cross, pig, 0.02 mg/kg
[5] = female, Yorkshire-Cross, pig, 0.04 mg/kg
[6] = female, Yorkshire-Cross, pig, 0.09 mg/kg

**Q.** For C=CC[C@@H]1/C=C(\C)C[C@H](C)C[C@H](OC)[C@H]2O[C@@](O)(C(=O)C(=O)N3CCCC[C@H]3C(=O)O[C@H](/C(C)=C/[C@@H]3CC[C@@H](O)[C@H](OC)C3)[C@H](C)[C@@H](O)CC1=O)[C@H](C)C[C@@H]2OC [tacrolimus], which “exposure AUC” value [1] is on record?
**A.** < 2000-12 ng·h/mL

**Q.** And the “luminal content (spiral, transverse, and distal colon) concentrations” value [1]?
**A.** Significantly higher

**Q.** What about the “mean concentration of tacrolimus in the cecum tissue and the proximate colon tissue” value [1] of the same compound?
**A.** higher

**Q.** What about the “tissue (spiral and transverse colon) concentrations” value [1] of the same compound?
**A.** Significantly higher

**Q.** What about the “level of tacrolimus in tissue” value ([1]; po) of the same compound?
**A.** No measurable level

**Q.** And the rectal content concentration ([1]; po)?
**A.** no detectable level

**Q.** What about the AUC(0-t) [2, 4] of the same compound?
**A.** 15.3 ± 2.36 ng·h/mL

**Q.** What about the Cmax [2, 4] of the same compound?
**A.** 2.39 ± 0.57 ng/mL

**Q.** And the concentration at 12 hr [2, 4]?
**A.** 0.746 ± 0.038 ng/mL

**Q.** And the AUC(0-t) [2, 5]?
**A.** 51.4 ± 4.04 ng·h/mL

**Q.** And the Cmax [2, 5]?
**A.** 9.2 ± 3.3 ng/mL

**Q.** What about the concentration at 12 hr [2, 5] of the same compound?
**A.** 1.96 ± 0.491 ng/mL

**Q.** And the AUC(0-t) [2, 6]?
**A.** 130 ± 7.83 ng·h/mL

**Q.** And the Cmax [2, 6]?
**A.** 21.8 ± 4.73 ng/mL

**Q.** What about the concentration at 12 hr [2, 6] of the same compound?
**A.** 4.35 ± 0.561 ng/mL

**Q.** And the concentration at 12 hr ([2]; female, Yorkshire-Cross, pig, po, 0.09 mg/kg)?
**A.** 0.568 ± 0.291 ng/mL

**Q.** What about the concentration at 12 h ([2]; female, Yorkshire-Cross, pig, po, 0.09 mg/kg, Trough level (12 hr)) of the same compound?
**A.** 0.568 ng/mL

**Q.** And the “mean concentration and AUC0-12 hours of tacrolimus in the blood” value ([2]; po, 0.09 mg/kg)?
**A.** higher

**Q.** And the Kp at 12 h ([3]; cecum tissue, other: intra-cecal, 0.04 mg/kg, cecum, Group 4 IC (0.04 mg/kg), swine, read-out: Ratio Tissue (mean) (ng/g)/Trough(12 hr) (ng/ml))?
**A.** 26.7

**Q.** What about the Kp at 12 h ([3]; cecum tissue, other: intra-cecal, 0.09 mg/kg, cecum, Group 5 IC (0.09 mg/kg), swine, read-out: Ratio Tissue (mean) (ng/g)/Trough(12 hr) (ng/ml)) of the same compound?
**A.** 17.8

**Q.** And the Kp at 12 h ([3]; distal colon tissue, other: intra-cecal, 0.02 mg/kg, distal colon, Group 3 IC (0.02 mg/kg), swine, read-out: Ratio Tissue (mean) (ng/g)/Trough(12 hr) (ng/ml))?
**A.** 59.9

**Q.** And the Kp at 12 h ([3]; distal colon tissue, other: intra-cecal, 0.04 mg/kg, distal colon, Group 4 IC (0.04 mg/kg), swine, read-out: Ratio Tissue (mean) (ng/g)/Trough(12 hr) (ng/ml))?
**A.** 14.6

**Q.** And the Kp at 12 h ([3]; distal colon tissue, other: intra-cecal, 0.09 mg/kg, distal colon, Group 5 IC (0.09 mg/kg), swine, read-out: Ratio Tissue (mean) (ng/g)/Trough(12 hr) (ng/ml))?
**A.** 15.6

**Q.** And the “Ratio Tissue (mean) (ng/g)/AUG(0-12 hr) (ng · hr/ml)” value ([3]; in vivo, po, 0.09 mg/kg, 12 h)?
**A.** 0

**Q.** What about the “Ratio Tissue (mean) (ng/g)/Trough(12 hr) (ng/ml)” value ([3]; in vivo, po, 0.09 mg/kg, 12 h) of the same compound?
**A.** 0

**Q.** And the Kp at 12 h ([3]; in vivo, po, 0.09 mg/kg, Ratio Tissue (mean) (ng/g)/AUG(0-12 hr) (ng · hr/ml))?
**A.** 0

**Q.** And the Kp at 12 h ([3]; in vivo, po, 0.09 mg/kg, Ratio Tissue (mean) (ng/g)/Trough(12 hr) (ng/ml))?
**A.** 0

**Q.** And the concentration at 12 hr ([3]; distal colon tissue, Group 3 IC (0.02 mg/kg), swine)?
**A.** 44.7 ng/g

**Q.** And the concentration at 12 hr ([3]; proximal colon tissue, Group 3 IC (0.02 mg/kg), swine)?
**A.** 50.2 ng/g

**Q.** And the concentration at 12 hr ([3]; spiral colon tissue, Group 3 IC (0.02 mg/kg), swine)?
**A.** 204 ng/g

**Q.** And the concentration at 12 hr ([3]; spiral colon tissue, Group 4 IC (0.04 mg/kg), swine)?
**A.** 342 ng/g

**Q.** And the concentration at 12 hr ([3]; spiral colon tissue, Group 5 IC (0.09 mg/kg), swine)?
**A.** 783 ng/g

**Q.** And the concentration at 12 hr ([3]; transverse colon tissue, Group 3 IC (0.02 mg/kg), swine)?
**A.** 128 ng/g

**Q.** And the concentration at 12 hr ([3]; transverse colon tissue, Group 4 IC (0.04 mg/kg), swine)?
**A.** 85.8 ng/g

**Q.** What about the concentration at 12 hr ([3]; transverse colon tissue, Group 5 IC (0.09 mg/kg), swine) of the same compound?
**A.** 272 ng/g

**Q.** And the concentration at 12 h ([3]; other: intra-cecal, cecum tissue, Group 4 IC (0.04 mg/kg), swine)?
**A.** 52.3 ng/g

**Q.** What about the concentration at 12 h ([3]; other: intra-cecal, cecum tissue, Group 5 IC (0.09 mg/kg), swine) of the same compound?
**A.** 77.3 ng/g

**Q.** And the concentration at 12 h ([3]; other: intra-cecal, distal colon tissue, Group 4 IC (0.04 mg/kg), swine)?
**A.** 28.7 ng/g

**Q.** And the concentration at 12 h ([3]; other: intra-cecal, distal colon tissue, Group 5 IC (0.09 mg/kg), swine)?
**A.** 67.7 ng/g

**Q.** What about the concentration at 12 h ([3]; other: intra-cecal, proximal colon tissue, Group 4 IC (0.04 mg/kg), swine) of the same compound?
**A.** 98.3 ng/g

**Q.** And the concentration at 12 h ([3]; other: intra-cecal, proximal colon tissue, Group 5 IC (0.09 mg/kg), swine)?
**A.** 157 ng/g

**Q.** What about the Kp at 12 h ([3]; proximal colon tissue, other: intra-cecal, 0.02 mg/kg, proximal colon, Group 3 IC (0.02 mg/kg), swine, read-out: Ratio Tissue (mean) (ng/g)/Trough(12 hr) (ng/ml)) of the same compound?
**A.** 67.3

**Q.** What about the Kp at 12 h ([3]; proximal colon tissue, other: intra-cecal, 0.04 mg/kg, proximal colon, Group 4 IC (0.04 mg/kg), swine, read-out: Ratio Tissue (mean) (ng/g)/Trough(12 hr) (ng/ml)) of the same compound?
**A.** 50.1

**Q.** And the Kp at 12 h ([3]; proximal colon tissue, other: intra-cecal, 0.09 mg/kg, proximal colon, Group 5 IC (0.09 mg/kg), swine, read-out: Ratio Tissue (mean) (ng/g)/Trough(12 hr) (ng/ml))?
**A.** 36.1

**Q.** And the Kp at 12 h ([3]; spiral colon tissue, other: intra-cecal, 0.02 mg/kg, spiral colon, Group 3 IC (0.02 mg/kg), swine, read-out: Ratio Tissue (mean) (ng/g)/Trough(12 hr) (ng/ml))?
**A.** 273

**Q.** And the Kp at 12 h ([3]; spiral colon tissue, other: intra-cecal, 0.04 mg/kg, spiral colon, Group 4 IC (0.04 mg/kg), swine, read-out: Ratio Tissue (mean) (ng/g)/Trough(12 hr) (ng/ml))?
**A.** 175

**Q.** What about the Kp at 12 h ([3]; spiral colon tissue, other: intra-cecal, 0.09 mg/kg, spiral colon, Group 5 IC (0.09 mg/kg), swine, read-out: Ratio Tissue (mean) (ng/g)/Trough(12 hr) (ng/ml)) of the same compound?
**A.** 180

**Q.** What about the Kp at 12 h ([3]; transverse colon tissue, other: intra-cecal, 0.02 mg/kg, transverse colon, Group 3 IC (0.02 mg/kg), swine, read-out: Ratio Tissue (mean) (ng/g)/Trough(12 hr) (ng/ml)) of the same compound?
**A.** 172

**Q.** And the Kp at 12 h ([3]; transverse colon tissue, other: intra-cecal, 0.04 mg/kg, transverse colon, Group 4 IC (0.04 mg/kg), swine, read-out: Ratio Tissue (mean) (ng/g)/Trough(12 hr) (ng/ml))?
**A.** 43.8

**Q.** And the Kp at 12 h ([3]; transverse colon tissue, other: intra-cecal, 0.09 mg/kg, transverse colon, Group 5 IC (0.09 mg/kg), swine, read-out: Ratio Tissue (mean) (ng/g)/Trough(12 hr) (ng/ml))?
**A.** 62.5
